Values belong to the compound of their own block, whether it stands above or below them.
Key:
[1] = molecular target: Tyrosine-protein kinase Lck (Homo sapiens, UniProt P06239); assay: Selectivity interaction (Radiometric kinase assay (using 10 uM ATP)) EUB0000601a LCK
[2] = molecular target: Tyrosine-protein kinase receptor Tie-1 (Homo sapiens) (UniProt P35590); assay: Selectivity interaction (KinomeScan (DiscoverX)) EUB0000699a TIE1; conditions: at 10 µM
[3] = molecular target: Serine/threonine-protein kinase 10 (Homo sapiens) (UniProt O94804); assay: Selectivity interaction (Ambit KINOMEscan and KiNATiv profiling in Jurkat cells) EUB0000090b STK10; assay type: cell-based; conditions: at 1 µM
[4] = molecular target: Serine/threonine-protein kinase Chk2 (Homo sapiens) (UniProt O96017); assay: Selectivity interaction (Kinase panel (DSF assay)) EUB0001559a CHEK2
[5] = molecular target: Tyrosine-protein kinase Srms (Homo sapiens) (UniProt Q9H3Y6); assay: Selectivity interaction (KinomeScan (DiscoverX)) EUB0001079a SRMS; conditions: at 1 µM
[6] = molecular target: Receptor tyrosine-protein kinase erbB-4 (Homo sapiens, UniProt Q15303); assay: Selectivity interaction (KinomeScan (DiscoverX)) EUB0000607a ERBB4; conditions: at 10 µM
[7] = molecular target: T1, Receptor-interacting serine/threonine-protein kinase 1 (Homo sapiens) (UniProt Q13546); assay: Selectivity interaction (KinomeScan (DiscoverX)) EUB0001619a RIPK1; conditions: at 1 µM
T1 sequence (whole entry): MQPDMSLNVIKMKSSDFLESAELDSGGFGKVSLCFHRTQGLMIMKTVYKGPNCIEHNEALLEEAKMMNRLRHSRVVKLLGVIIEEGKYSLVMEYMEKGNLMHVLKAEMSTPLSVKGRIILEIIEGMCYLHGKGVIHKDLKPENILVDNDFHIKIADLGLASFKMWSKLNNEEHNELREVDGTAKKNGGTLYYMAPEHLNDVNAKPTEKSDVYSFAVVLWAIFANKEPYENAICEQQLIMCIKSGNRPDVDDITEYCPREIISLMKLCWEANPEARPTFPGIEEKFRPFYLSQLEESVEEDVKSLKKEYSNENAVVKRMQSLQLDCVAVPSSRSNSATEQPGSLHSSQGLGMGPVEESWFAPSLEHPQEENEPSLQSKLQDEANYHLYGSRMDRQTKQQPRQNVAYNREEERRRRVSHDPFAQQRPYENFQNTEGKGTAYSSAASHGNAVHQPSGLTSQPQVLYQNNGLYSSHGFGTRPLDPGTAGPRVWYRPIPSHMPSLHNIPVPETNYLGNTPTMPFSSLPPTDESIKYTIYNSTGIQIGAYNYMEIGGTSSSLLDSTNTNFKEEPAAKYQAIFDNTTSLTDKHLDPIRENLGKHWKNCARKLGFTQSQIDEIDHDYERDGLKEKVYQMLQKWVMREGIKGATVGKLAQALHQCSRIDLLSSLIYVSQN

[8] = molecular target: Tyrosine-protein kinase JAK1 (Homo sapiens, UniProt P23458); assay: Selectivity interaction (ActivX KiNativ screen (ex vivo kinase selectivity in human PBMCs)) EUB0001619a JAK1; assay type: cell-based; conditions: PBMC, at 1 µM
[9] = molecular target: Casein kinase I isoform epsilon (Homo sapiens, UniProt P49674); assay: Selectivity interaction (Kinase panel (Invitrogen)) EUB0000639a CSNK1E; conditions: at 200 nM
[10] = molecular target: T2, Serine/threonine-protein kinase Sgk2 (Homo sapiens) (UniProt Q9HBY8); assay: Selectivity interaction (ActivX KiNativ screen (kinase selectivity in THP-1 cell lysates)) EUB0000639a SGK2; assay type: subcellular; conditions: lysate
T2 sequence (whole entry): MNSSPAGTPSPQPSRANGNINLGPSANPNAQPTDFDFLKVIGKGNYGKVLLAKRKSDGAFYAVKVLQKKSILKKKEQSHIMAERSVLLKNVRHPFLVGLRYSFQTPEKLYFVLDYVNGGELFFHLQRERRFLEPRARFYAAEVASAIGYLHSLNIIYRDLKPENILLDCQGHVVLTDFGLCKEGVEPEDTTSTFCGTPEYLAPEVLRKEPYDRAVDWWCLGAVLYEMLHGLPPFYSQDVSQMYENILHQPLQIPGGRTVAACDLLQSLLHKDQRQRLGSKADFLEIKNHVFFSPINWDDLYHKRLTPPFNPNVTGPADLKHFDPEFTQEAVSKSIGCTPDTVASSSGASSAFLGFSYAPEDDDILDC

[11] = molecular target: T3, Serine/threonine-protein kinase TAO3 (Homo sapiens) (UniProt Q9H2K8); assay: Selectivity interaction (KinomeScan (DiscoverX)) EUB0001049a TAOK3; conditions: at 1 µM
T3 sequence (whole entry): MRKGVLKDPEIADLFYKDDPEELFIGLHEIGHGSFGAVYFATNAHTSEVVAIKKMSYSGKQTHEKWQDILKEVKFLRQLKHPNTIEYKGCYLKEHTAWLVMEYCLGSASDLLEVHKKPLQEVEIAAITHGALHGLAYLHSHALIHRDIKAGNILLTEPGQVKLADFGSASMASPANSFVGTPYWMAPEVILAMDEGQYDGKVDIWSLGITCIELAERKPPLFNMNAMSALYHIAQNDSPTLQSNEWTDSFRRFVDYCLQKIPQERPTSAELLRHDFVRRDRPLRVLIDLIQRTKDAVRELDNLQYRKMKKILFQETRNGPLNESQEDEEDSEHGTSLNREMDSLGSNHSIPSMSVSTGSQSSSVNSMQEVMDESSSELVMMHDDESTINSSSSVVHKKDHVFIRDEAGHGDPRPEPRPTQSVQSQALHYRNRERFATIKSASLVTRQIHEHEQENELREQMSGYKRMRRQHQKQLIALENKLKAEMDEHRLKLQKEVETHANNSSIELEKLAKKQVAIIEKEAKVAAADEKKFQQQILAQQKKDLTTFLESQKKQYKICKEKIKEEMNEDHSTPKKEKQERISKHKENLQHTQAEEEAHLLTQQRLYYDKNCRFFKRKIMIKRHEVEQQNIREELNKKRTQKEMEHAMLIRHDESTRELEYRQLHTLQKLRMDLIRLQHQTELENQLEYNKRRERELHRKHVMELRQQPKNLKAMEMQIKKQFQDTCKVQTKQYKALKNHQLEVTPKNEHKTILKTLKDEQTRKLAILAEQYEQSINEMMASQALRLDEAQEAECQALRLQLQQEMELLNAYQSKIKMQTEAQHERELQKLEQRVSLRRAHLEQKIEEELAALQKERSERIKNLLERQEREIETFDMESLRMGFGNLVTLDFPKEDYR

[12] = molecular target: 3',5'-cyclic-AMP phosphodiesterase 4B (Homo sapiens) (UniProt Q07343); assay: Selectivity interaction (Panel of kinases, GPCRs, ion channels and transporters (enzymatic assay)) EUB0000223bCl PDE4B
[13] = molecular target: Phosphatidylinositol 4-phosphate 5-kinase type-1 gamma (Homo sapiens) (UniProt O60331); assay: Selectivity interaction (KinomeScan (DiscoverX)) EUB0000666a PIP5K1C; conditions: at 10 µM
Phosphatidylinositol 4-phosphate 5-kinase type-1 gamma (Homo sapiens), sequence (O60331 whole entry): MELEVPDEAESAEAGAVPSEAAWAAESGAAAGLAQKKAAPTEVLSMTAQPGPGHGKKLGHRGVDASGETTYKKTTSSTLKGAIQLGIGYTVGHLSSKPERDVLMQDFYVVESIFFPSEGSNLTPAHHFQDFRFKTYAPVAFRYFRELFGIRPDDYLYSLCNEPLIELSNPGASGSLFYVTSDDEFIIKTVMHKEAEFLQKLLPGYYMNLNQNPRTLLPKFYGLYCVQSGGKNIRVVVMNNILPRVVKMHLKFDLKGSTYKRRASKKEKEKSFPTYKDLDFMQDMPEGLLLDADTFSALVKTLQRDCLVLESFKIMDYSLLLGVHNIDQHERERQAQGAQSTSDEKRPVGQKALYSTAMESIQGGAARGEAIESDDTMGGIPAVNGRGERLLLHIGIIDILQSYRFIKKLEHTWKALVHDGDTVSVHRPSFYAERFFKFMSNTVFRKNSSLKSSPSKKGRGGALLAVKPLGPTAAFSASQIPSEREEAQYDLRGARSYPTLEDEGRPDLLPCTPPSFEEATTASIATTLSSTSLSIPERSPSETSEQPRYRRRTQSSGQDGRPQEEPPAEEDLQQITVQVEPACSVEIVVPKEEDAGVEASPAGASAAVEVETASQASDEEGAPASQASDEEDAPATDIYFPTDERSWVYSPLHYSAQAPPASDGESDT

3',5'-cyclic-AMP phosphodiesterase 4B (Homo sapiens), sequence (Q07343 whole entry): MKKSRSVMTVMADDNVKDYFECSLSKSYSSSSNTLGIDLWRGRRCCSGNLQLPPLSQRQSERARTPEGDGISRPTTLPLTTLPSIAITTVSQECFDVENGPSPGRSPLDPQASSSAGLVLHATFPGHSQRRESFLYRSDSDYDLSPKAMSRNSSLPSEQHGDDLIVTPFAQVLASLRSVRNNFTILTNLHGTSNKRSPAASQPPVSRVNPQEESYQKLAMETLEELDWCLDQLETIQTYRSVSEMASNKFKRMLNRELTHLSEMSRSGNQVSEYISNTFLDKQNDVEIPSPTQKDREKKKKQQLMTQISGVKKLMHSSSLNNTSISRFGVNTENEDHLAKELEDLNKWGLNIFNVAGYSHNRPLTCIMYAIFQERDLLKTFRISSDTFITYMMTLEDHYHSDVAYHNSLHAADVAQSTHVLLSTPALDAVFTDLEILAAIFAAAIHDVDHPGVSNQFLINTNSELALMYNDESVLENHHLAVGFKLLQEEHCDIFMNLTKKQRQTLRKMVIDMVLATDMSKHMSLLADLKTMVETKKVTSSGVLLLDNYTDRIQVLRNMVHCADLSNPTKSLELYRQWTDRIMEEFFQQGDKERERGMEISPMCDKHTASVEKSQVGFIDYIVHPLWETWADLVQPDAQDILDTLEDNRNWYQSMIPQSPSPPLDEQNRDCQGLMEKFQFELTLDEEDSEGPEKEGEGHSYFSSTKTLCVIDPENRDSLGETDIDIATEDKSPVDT
Tyrosine-protein kinase Srms (Homo sapiens), sequence (Q9H3Y6 whole entry): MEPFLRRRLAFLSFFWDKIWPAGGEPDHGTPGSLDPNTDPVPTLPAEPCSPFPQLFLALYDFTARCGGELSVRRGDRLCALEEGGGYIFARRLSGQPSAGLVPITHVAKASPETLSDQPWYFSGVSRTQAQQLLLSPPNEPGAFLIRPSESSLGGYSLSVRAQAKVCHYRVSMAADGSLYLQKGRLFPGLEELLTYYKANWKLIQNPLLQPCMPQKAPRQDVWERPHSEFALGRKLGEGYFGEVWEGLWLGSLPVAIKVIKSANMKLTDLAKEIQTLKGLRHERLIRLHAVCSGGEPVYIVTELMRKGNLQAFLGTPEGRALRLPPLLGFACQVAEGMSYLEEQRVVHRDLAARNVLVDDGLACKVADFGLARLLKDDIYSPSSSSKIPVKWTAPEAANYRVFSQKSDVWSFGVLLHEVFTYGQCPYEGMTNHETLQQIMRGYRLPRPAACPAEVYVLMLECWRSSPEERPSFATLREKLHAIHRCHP
Serine/threonine-protein kinase Chk2 (Homo sapiens), sequence (O96017 whole entry): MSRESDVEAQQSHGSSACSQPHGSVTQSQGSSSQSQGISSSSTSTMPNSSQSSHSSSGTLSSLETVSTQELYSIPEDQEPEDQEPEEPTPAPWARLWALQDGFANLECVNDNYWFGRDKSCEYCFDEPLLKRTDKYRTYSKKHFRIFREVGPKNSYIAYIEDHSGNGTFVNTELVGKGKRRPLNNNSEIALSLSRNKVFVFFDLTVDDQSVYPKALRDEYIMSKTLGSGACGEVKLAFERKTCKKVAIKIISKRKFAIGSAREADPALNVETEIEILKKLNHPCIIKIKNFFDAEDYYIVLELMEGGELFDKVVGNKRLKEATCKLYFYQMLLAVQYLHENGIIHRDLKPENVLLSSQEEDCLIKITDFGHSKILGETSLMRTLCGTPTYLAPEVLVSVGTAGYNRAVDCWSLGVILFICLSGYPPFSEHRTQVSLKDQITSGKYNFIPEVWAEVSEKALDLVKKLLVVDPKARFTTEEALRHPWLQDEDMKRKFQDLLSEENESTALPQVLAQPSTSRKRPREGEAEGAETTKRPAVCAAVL
Serine/threonine-protein kinase 10 (Homo sapiens), sequence (O94804 whole entry, looked up): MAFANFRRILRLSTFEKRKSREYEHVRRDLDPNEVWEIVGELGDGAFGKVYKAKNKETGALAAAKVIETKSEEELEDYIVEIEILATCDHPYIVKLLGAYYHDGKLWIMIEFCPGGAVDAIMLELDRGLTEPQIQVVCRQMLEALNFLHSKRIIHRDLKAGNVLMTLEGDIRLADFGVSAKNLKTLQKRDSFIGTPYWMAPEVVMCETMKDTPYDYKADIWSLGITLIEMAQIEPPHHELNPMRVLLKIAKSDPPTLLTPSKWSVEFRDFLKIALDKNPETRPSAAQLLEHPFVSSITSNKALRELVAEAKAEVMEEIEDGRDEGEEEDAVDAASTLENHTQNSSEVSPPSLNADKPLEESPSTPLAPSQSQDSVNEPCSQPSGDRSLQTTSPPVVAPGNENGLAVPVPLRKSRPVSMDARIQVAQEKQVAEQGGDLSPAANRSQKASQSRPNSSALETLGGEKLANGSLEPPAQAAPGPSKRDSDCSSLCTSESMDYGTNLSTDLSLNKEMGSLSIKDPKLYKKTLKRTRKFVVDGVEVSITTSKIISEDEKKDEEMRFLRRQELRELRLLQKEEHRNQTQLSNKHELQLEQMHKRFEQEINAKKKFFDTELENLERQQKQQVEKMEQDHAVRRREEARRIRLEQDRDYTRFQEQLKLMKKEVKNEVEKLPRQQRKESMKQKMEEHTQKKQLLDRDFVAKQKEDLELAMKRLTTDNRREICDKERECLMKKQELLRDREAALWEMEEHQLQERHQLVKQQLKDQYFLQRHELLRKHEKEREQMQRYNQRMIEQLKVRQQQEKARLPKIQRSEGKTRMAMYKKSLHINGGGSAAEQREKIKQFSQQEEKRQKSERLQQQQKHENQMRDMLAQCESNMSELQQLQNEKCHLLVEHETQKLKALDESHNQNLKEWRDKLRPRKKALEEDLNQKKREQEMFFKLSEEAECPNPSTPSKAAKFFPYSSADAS
Casein kinase I isoform epsilon, sequence (P49674 whole entry, looked up, canonical isoform): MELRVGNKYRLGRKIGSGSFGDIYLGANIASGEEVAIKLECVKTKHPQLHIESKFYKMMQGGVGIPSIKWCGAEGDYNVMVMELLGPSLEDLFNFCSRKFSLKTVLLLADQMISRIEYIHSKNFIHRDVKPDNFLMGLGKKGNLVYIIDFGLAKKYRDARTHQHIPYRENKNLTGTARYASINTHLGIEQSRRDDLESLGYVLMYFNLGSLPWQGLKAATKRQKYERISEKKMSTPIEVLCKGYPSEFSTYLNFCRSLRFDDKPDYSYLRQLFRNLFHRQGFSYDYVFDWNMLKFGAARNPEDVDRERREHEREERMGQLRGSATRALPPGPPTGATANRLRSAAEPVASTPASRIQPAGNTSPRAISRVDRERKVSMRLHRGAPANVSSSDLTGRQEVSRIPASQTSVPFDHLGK
Tyrosine-protein kinase Lck, sequence (P06239 whole entry): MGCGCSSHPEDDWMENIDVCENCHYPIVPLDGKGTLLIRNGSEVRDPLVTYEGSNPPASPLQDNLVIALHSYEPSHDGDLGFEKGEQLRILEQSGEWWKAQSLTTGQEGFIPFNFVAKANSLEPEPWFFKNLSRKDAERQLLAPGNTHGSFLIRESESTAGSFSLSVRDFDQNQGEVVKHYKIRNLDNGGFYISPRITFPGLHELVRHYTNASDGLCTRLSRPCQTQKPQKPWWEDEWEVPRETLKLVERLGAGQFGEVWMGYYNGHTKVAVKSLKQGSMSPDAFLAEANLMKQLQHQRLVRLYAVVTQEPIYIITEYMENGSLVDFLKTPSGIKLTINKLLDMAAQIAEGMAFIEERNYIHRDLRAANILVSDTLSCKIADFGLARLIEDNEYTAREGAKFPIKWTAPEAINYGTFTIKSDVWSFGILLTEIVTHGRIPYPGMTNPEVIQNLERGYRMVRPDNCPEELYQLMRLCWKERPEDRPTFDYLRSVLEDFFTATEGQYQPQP

IC50 [1]: > 3 µM
Compound: CCc1cc(Nc2nccc(-c3c(-c4ccc(OC)c(C(=O)Nc5c(F)cccc5F)c4)nc4ccccn34)n2)c(OC)cc1N1CCC(N2CCN(S(C)(=O)=O)CC2)CC1

% of control [2]: 12%
Compound: CCN(CC)CCCCNc1ncc2cc(-c3cc(OC)cc(OC)c3)c(NC(=O)NC(C)(C)C)nc2n1

Compound: CN(C)C/C=C/C(=O)Nc1ccc(C(=O)N2CCCC(Nc3ncc(Cl)c(-c4c[nH]c5ccccc45)n3)C2)cc1 (configuration not stated)
% of control [3]: 80%

dTM [4]: 0.2 K
Compound: CN(C(=O)c1cnn2cccnc12)c1cc2c(cc1N1CCOCC1)C(=O)N(C[C@@H](F)C(C)(C)O)C2

Compound: Nc1cnc(N2CCc3cc(S(=O)(=O)Nc4c(F)cc(Cl)cc4F)cc(N4CCCC4=O)c32)nc1 [TP-020n]
% of control [5]: 88%

Compound: CNC(=O)Nc1ccc(-c2nc(N3CC4CCC(C3)O4)c3cnn(C4CCC5(CC4)OCCO5)c3n2)cc1
% of control [6]: 100%

Compound: N#Cc1cccc(-c2c[nH]c3ncnc(N4CCOCC4)c23)c1
% of control [7]: 100% | % of inhibition [8]: 5%

% of inhibition [9]: 42.3% | % of inhibition ([10]; at 0.01 µM): -1% | % of inhibition ([10]; at 0.04 µM): 3.1% | % of inhibition ([10]; at 0.2 µM): -5.7% | % of inhibition ([10]; at 1 µM): -1% | % of inhibition ([10]; at 5 µM): -1.4%
Compound: CC[C@@H]1[C@H](F)C(=O)N[C@@H]1COc1nccc2cc(C(N)=O)c(OC)cc12 [ZIMLOVISERTIB]

Compound: COc1cc(Nc2nc(C)cc(-c3cnn4nc(OC)ccc34)n2)cc(C(F)(F)F)c1
% of control [11]: 75%

Compound: COc1cc(C(=O)N2CC[C@@H](O)[C@@H](N)C2)cc2nc(-c3cc4ccccc4n3CC3CC3)n(C)c12
pXC50 [12]: 4.4 M

Compound: O=C(NOC[C@H](O)CO)c1ccc(F)c(F)c1Nc1ccc(I)cc1F
% of control [13]: 100%

From ChEMBL document CHEMBL5465560, “Selectivity Literature for EUbOPEN Chemogenomic Library” (2024)
